{"source": "patent US20250002450A1", "about": "“CATIONIC STEROID COMPOUNDS, METHOD OF OBTAINING THEREOF, FORMULATIONS COMPRISING THEREOF AND THEIR USES” (UNIVERSIDADE DO PORTO, priority 2021, published 2025)", "key": {"[1]": {"test_system": "Saprolegnia parasitica CBS 223.65", "experiment": "MIC/MLC broth microdilution in GY broth", "format": "cell-based", "procedure": "The antifungal activity of compound 1 was evaluated for a wide range of fungal species, covering yeasts and filamentous fungi, including dermatophytes. […] This antimicrobial effect was fungicidal, with minimal lethal concentrations (MLC) being equal to, or one or two-fold higher than the respective MIC. Twenty-three fungal strains were used in this study, including reference strains and clinical isolates of yeasts and filamentous fungi. Yeast strains included reference strains (ATCC—American Type Culture Collection and CECT—Colección Española de Cultivos Tipo) and clinical isolates: C. albicans ATCC 10231, Candida krusei ATCC 6258, C. albicans H37, C. albicans FF172, C. albicans FF176, C. albicans DSY294, C. albicans DSY296, C. glabrata DSY562, C. glabrata DSY565 and Cryptococcus neoformans CECT 1078. […]\nEach well was then inoculated with approximately 1 mm^2 of mycelium. […] After 5-7 days of incubation at 24° C., MIC was recorded as the lowest concentration that prevented obvious mycelial growth in comparison to the compound-free controls. […]"}, "E. coli ATCC 25922 [2]": {"test_system": "E. coli ATCC 25922", "experiment": "Checkerboard synergy with erythromycin", "format": "cell-based, Escherichia coli", "details": "E. coli ATCC 25922", "procedure": "The combined effect of compound 1 and CTX for E. coli SA/2, VAN for E. faecalis B3/101, COL for E. coli 2252, erythromycin for E. coli ATCC 25922, and OXA for S. aureus 66/1 was evaluated by the checkerboard method. […] The interaction between compound 1 and erythromycin was assessed for E. coli ATCC 25922. Gram-negative bacteria are intrinsically resistant to erythromycin, a macrolide that inhibits protein synthesis, and cannot penetrate the outer membrane of Gram-negative bacteria, which is impermeable to hydrophobic antibiotics. Ascertain ceragenins have been previously described to be able to enhance the efficacy of such antibiotics, this possibility was investigated for compound 1 and a FICI of 0.6 was obtained."}, "E. coli ATCC 25922 [3]": {"test_system": "E. coli ATCC 25922", "experiment": "Membrane integrity, propidium iodide influx assay (SYTO 9/PI)", "format": "cell-based, Escherichia coli", "procedure": "The influx of PI in E. coli ATCC 25922 treated with 2×MIC, MIC, and ½×MIC of compound 1 was evaluated using a commercial kit that includes fluorescent nucleic acid stains SYTO® 9 and PI. SYTO® 9 can enter cells with intact or damaged membranes, generally labeling both, whereas PI only penetrates cells with severe membrane lesions, causing a reduction in SYTO® 9 fluorescence when both dyes are present.\nIn these assays, COL and AMP were used as controls. COL is a polycationic antimicrobial peptide with a complex mode of action, that ultimately solubilizes the bacterial cell membrane. AMP is an aminopenicillin that inhibits cell wall synthesis by inhibiting penicillin-binding proteins. E. coli ATCC 25922 cells were treated with compound 1 and, at several time-points (0, 1, and 18 h), samples were taken, and SYTO® 9/PI ratio was determined ([FIG. 4]). The entrance of PI is reflected in a reduction of this ratio.\nBriefly, E. coli ATCC 25922 colonies from overnight cultures in MHA were suspended in CAMHB to prepare an inoculum with a final concentration of approximately 5×10^5 CFU/mL. The tubes were incubated overnight at 36° C. in a water bath with shaking. Following this, the cell suspensions were centrifuged at 3500 rpm for 15 min, the supernatant was removed, the cells were carefully resuspended in fresh CAMHB and the suspension was adjusted to 0.5 McFarland. An aliquot of this suspension was then added to each tube of CAMHB alone (control) or CAMHB plus an appropriate amount of test compound. […] The tubes were incubated at 36 degrees C. in a water bath with shaking and, at pre-established time points (0, 1, and 18 h), […] aliquots were retrieved for further analysis. After the exposure time, cells were washed two times, resuspended in 0.85% NaCl, and 100 μL of each cell suspension was distributed in the wells of a microtiter plate, in triplicate. 100 μL of a mixture of 30 μM PI and 5 μM SYTO® 9 prepared in ultrapure water were added to each well, and the plates were incubated at room temperature, in the dark, for 15 min. The fluorescence intensity of the stained bacterial suspensions was determined using a microplate reader (Synergy HT, BioTek Instruments, Winooski, VT, USA) by two consecutive measurements with excitation wavelength 485 nm and emission wavelength 528 nm (SYTO® 9) or 590 nm (PI). Data were analyzed by subtracting background fluorescence from each sample, dividing the fluorescence intensity of SYTO® 9 by fluorescence intensity of PI, and the results are presented as a percentage of control. Three independent assays were performed in triplicate for each experimental condition."}}, "data": [{"smiles": "C[C@H](CCC(=O)NCCN)[C@H]1CC[C@H]2[C@@H]3CC[C@@H]4C[C@H](O)CC[C@]4(C)[C@H]3C[C@H](O)[C@]12C", "note": "[Compound 1, (R)—N-(2-aminoethyl)-4-((3R,5R,8R,9S,10S,12S,13R,14S,17R)-3,12-dihydroxy-10,13-dimethylhexadecahydro-1H-cyclopenta[a]phenanthren-17-yl) pentanamida]", "values": [{"measurement": "MIC", "setting": "[1]", "value": "32 to 64", "unit": "µg/mL"}, {"measurement": "MLC", "setting": "[1]", "value": "32 to 64", "unit": "µg/mL"}, {"measurement": "combined effect with erythromycin (in words)", "setting": "E. coli ATCC 25922 [2]; checkerboard", "value": "No synergistic interactions"}, {"measurement": "fractional inhibitory concentration index (FICI)", "setting": "E. coli ATCC 25922 [2]; with erythromycin", "value": 0.6}, {"measurement": "reduction in SYTO 9/PI ratio vs untreated control", "setting": "E. coli ATCC 25922 [3]; 32 μg/mL (MIC), after 1 and 18 h", "value": "significant"}, {"measurement": "reduction in SYTO 9/PI ratio vs untreated control", "setting": "E. coli ATCC 25922 [3]; 64 μg/mL (2×MIC, MBC), 0, 1, 18 h", "value": "significant at all time points"}]}]}
